Assay results: US20100099676A1 (SHIONOGI & CO., LTD., priority 2006, published 2010)

Tests used:
Experiment in all cases: Enzyme inhibiting activity of MMPs, fluorogenic peptide substrate
Assay type in all cases: biochemical
MMP-2 = biological target: T1, MMP-2 (Homo sapiens, UniProt P08253); conditions: substrate MOCAc-Pro-Leu-Gly-Leu-A2Pr(DNP)-Ala-Arg-NH2, fluorescent intensity
T1 construct: purchased Calbiochem (EMD/MERCK Biosciences)
T1 sequence (P08253 110-660): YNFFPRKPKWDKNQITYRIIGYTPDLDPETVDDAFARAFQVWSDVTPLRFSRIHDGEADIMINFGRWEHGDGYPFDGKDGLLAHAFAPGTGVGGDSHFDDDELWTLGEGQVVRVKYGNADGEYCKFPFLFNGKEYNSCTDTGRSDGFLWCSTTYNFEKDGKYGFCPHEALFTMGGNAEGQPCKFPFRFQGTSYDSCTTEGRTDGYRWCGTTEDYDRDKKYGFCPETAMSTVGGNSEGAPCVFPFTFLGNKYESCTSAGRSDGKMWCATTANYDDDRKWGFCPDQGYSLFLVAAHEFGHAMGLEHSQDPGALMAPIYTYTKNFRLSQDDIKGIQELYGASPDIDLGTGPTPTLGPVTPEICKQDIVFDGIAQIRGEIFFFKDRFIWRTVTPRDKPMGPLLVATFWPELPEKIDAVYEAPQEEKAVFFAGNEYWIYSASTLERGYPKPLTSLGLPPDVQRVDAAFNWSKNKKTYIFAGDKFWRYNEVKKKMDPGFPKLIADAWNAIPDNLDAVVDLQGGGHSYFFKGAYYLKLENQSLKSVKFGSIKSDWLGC
Protocol: (§1) Various human MMPs (MMP-2, MMP-9 and MMP-13) were purchased from Calbiochem (EMD/MERCK Biosciences).
(§2) The enzyme activity of MMPs was measured according to the method described in C. Graham Knight, Frances Willenbrock and Gillian Murphy: A novel coumarin-labelled peptide for sensitive continuous assays of the matrix metalloproteinases: FEBS LETT., 296, (1992), 263-266. As a substrate, MOCAc-Pro-Leu-Gly-Leu-A2Pr(DNP)- Ala-Arg-NH2 (Peptide Institute, Inc. Osaka, Japan) was used, and the following four assays are performed per compound (inhibitor) for measuring the inhibiting activity.
(§3) (A) Substrate (synthetic substrate), enzyme (MMPs), inhibitor
(§4) (B) Substrate (synthetic substrate), inhibitor
(§5) (C) Substrate (synthetic substrate), enzyme (MMPs)
(§6) (D) Substrate (synthetic substrate)
(§7) In each assay, the fluorescent intensity was measured, and inhibition (%) was calculated by the following equation.
(§8) Inhibition (%)=[I−(A−B)/(C−D)]×100
(§9) IC50 indicates a concentration at which inhibition (%) is 50%.

MMP-9 = biological target: T2, MMP-9 (Homo sapiens, UniProt P14780); conditions: substrate MOCAc-Pro-Leu-Gly-Leu-A2Pr(DNP)-Ala-Arg-NH2, fluorescent intensity
T2 construct: purchased Calbiochem (EMD/MERCK Biosciences)
Protocol: as §1, §2, §3, §4, §5, §6, §7, §8, §9

MMP-13 = biological target: T3, MMP-13 (Homo sapiens, UniProt P45452); conditions: APMA-activated proenzyme; substrate MOCAc-Pro-Leu-Gly-Leu-A2Pr(DNP)-Ala-Arg-NH2, fluorescent intensity; read-out: IC50 MMP-13
T3 construct: purchased Calbiochem (EMD/MERCK Biosciences)
Summary of the method: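 Pro-MMP-13 was activated with 1 mM APMA at 37° C for 2 h in 50 mM Tris-HCl pH 7.6, 0.3 M NaCl, 10 mM CaCl2, 0.005% Brij35. Activity was read by fluorescence using MOCAc-Pro-Leu-Gly-Leu-A2Pr(DNP)-Ala-Arg-NH2 substrate, with enzyme and inhibitor blank corrections. IC50 is the concentration giving 50% inhibition.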

T2 sequence (P14780 94-707): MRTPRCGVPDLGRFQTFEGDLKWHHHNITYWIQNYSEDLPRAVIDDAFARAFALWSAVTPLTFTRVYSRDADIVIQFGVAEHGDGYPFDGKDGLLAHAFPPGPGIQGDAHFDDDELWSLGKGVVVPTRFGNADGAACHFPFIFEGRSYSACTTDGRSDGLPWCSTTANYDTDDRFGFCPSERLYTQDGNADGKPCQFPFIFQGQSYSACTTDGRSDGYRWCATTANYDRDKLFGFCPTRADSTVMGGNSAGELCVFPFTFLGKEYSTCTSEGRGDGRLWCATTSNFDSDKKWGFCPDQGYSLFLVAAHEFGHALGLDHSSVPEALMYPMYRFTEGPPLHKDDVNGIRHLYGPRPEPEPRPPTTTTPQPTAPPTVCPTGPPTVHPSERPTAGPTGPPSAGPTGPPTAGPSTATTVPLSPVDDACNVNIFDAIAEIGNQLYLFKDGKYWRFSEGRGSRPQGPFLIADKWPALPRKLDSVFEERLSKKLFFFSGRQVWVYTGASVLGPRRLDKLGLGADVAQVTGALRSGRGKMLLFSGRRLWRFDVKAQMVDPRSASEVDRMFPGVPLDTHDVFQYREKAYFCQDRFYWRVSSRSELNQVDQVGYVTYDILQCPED

Compound: CCc1cnc(-c2cc(C#Cc3ccc(N4CCN(S(=O)(=O)N[C@H](C)C(=O)O)CC4)cc3)ccc2OCCOC)o1 [Compound V-23, (R)-2-(4-{4-[3-(5-ethyloxazol-2-yl)-4-(2-methoxyethoxy)-phenylethynyl]-phenyl}-piperazine-1-sulfonylamino)-proponic acid]
- IC50 (MMP-2): 1 to 10 µM
- IC50 (MMP-9): > 10 µM
- IC50 (MMP-13): 4 nM

Compound: COCCOc1ccc(C#Cc2ccc(N3CCN(S(=O)(=O)N[C@@H](C(=O)O)C(C)C)CC3)cc2)cc1-c1ncc(CC(=O)NCc2ccccc2)o1 [Compound V-24, (R)-2-(4-{4-[3-[5-(benzylearbamoylmethyl)-oxazol-2-yl]-4-(2-methoxyethoxy)-phenylethynyl]-phenyl}-piperazine-1-sulfonylamino)-3-methylbutanoic acid]
- IC50 (MMP-2): > 10 µM
- IC50 (MMP-9): > 10 µM
- IC50 (MMP-13): 23 nM

Compound: CCOc1ccc(C#Cc2ccc(N3CCN(S(=O)(=O)N[C@H](C)C(=O)O)CC3)cc2)cc1-c1ncc(CC)o1 [Compound V-25, (R)-2-(4-{4-[4-ethoxy-3-(5-ethyloxazol-2-yl)-phenylethynyl]-phenyl}-piperazine-1-sulfonylamino)-proponic acid]
- IC50 (MMP-2): 1 to 10 µM
- IC50 (MMP-9): > 10 µM
- IC50 (MMP-13): 9 nM

Compound: CCOc1ccc(C#Cc2ccc(N3CCN(S(=O)(=O)N[C@@H](C(=O)O)C(C)C)CC3)cc2)cc1-c1ncc(CC)o1 [Compound V-26, (R)-2-(4-{4-[4-ethoxy-3-(5-ethyloxazol-2-yl)-phenylethynyl]-phenyl}-piperazine-1-sulfonylamino)-3-methylbutanoic acid]
- IC50 (MMP-2): 1 to 10 µM
- IC50 (MMP-9): > 10 µM
- IC50 (MMP-13): 24 nM

Compound: CNC(=O)Cc1cnc(-c2cc(C#Cc3ccc(N4CCN(S(=O)(=O)N[C@@H](C(=O)O)C(C)C)CC4)cc3)ccc2OCCOC)o1 [Compound V-28, (R)-2-(4-{4-[4-(2-methoxyethoxy)-3-(5-methylcarbamoylmethyloxazol-2-yl)-phenylethynyl]-phenyl}-piperazine-1-sulfonylamino)-3-methylbutanoic acid]
- IC50 (MMP-2): 1 to 10 µM
- IC50 (MMP-9): > 10 µM
- IC50 (MMP-13): 16 nM

Compound: CC(C)[C@@H](NS(=O)(=O)N1CCN(c2ccc(C#Cc3ccnc(C(=O)NCc4ccc(C(=O)NCC#N)cc4)c3)cc2)CC1)C(=O)O [Compound V-30, (R)-2-[4-(4-{2-[4-(cyanomethylcarbamoyl)-benzylcarbamoyl]-pyridin-4-ylethynyl}-phenyl)-piperazine-1-sulfonylamino]-3-methylbutanoic acid]
- IC50 (MMP-2): 1 to 10 µM
- IC50 (MMP-9): > 10 µM
- IC50 (MMP-13): 1 nM

Compound: CC(C)[C@@H](NS(=O)(=O)N1CCN(c2ccc(C#Cc3ccnc(C(=O)NCc4ccc(C#N)cc4)c3)cc2)CC1)C(=O)O [Compound V-31, (R)-2-(4-{4-[2-(4-cyanobenzylcarbamoyl)-pyridin-4-ylethynyl]-phenyl}-piperazine-1-sulfonylamino)-3-methylbutanoic acid]
- IC50 (MMP-2): 1 to 10 µM
- IC50 (MMP-9): > 10 µM
- IC50 (MMP-13): 3 nM

Compound: CC(C)[C@@H](NS(=O)(=O)N1CCN(c2ccc(C#Cc3ccnc(C(=O)NCc4cccc(C#N)c4)c3)cc2)CC1)C(=O)O [Compound V-32, (R)-2-(4-{4-[2-(3-cyanobenzylcarbamoyl)-pyridin-4-ylethynyl]-phenyl}-piperazine-1-sulfonylamino)-3-methylbutanoic acid]
- IC50 (MMP-2): 1 to 10 µM
- IC50 (MMP-9): > 10 µM
- IC50 (MMP-13): 16 nM

Compound: CCC[C@H](NS(=O)(=O)N1CCN(c2ccc(C#Cc3ccnc(C(=O)NCc4ccc(OC)cc4)c3)cc2)CC1)C(=O)O [Compound V-33, (5)-2-(4-{4-[2-(4-methoxybenzylcarbamoyl)-pyridin-4-ylethynyl]-phenyl}-piperazine-1-sulfonylamino)-pentanoic acid]
- IC50 (MMP-2): 1 to 10 µM
- IC50 (MMP-9): > 10 µM
- IC50 (MMP-13): 3 nM

Compound: COc1ccc(CNC(=O)c2cc(C#Cc3ccc(N4CCN(S(=O)(=O)N[C@H](C(=O)O)C(C)C)CC4)cc3)ccn2)cc1 [Compound V-34, (5)-2-(4-{4-[2-(4-methoxybenzylcarbamoyl)-pyridin-4-ylethynyl]-phenyl}-piperazine-1-sulfonylamino)-3-methylbutanoic acid]
- IC50 (MMP-2): 1 to 10 µM
- IC50 (MMP-9): > 10 µM
- IC50 (MMP-13): 5 nM

Compound: COc1ccc(Cn2ccc3ccc(C#Cc4ccc(N5CCN(S(=O)(=O)N[C@H](C)C(=O)O)CC5)cc4)cc3c2=O)cc1 [Compound V-36, (R)-2-(4-{4-[2-(4-methoxybenzyl)-1-oxo-1,2-dihydroisoquinolin-7-ylethynyl]-phenyl}-piperazine-1-sulfonylamino)-proponic acid]
- IC50 (MMP-2): 1 to 10 µM
- IC50 (MMP-9): 1 to 10 µM
- IC50 (MMP-13): 5 nM

Compound: COc1ccc(Cn2ccc3ccc(C#Cc4ccc(N5CCN(S(=O)(=O)N[C@H](C(=O)O)C(C)C)CC5)cc4)cc3c2=O)cc1 [Compound V-37, (S)-2-(4-{4-[2-(4-methoxybenzyl)-1-oxo-1,2-dihydroisoquinolin-7-ylethynyl]-phenyl}-piperazine-1-sulfonylamino)-3-methylbutanoic acid]
- IC50 (MMP-2): > 10 µM
- IC50 (MMP-9): > 10 µM
- IC50 (MMP-13): 20 nM

Compound: CC(C)[C@@H](NS(=O)(=O)N1CCN(c2ccc(C#Cc3nc(-c4cccc(C(=O)NCC#N)c4)cs3)cc2)CC1)C(=O)O [Compound V-40, (R)-2-[4-(4-{4-[3-(cyanomethylcarbamoyl)-phenyl]-thiazol-2-ylethynyl}-phenyl)-piperazine-1-sulfonylamino]-3-methylbutanoic acid]
- IC50 (MMP-2): 1 to 10 µM
- IC50 (MMP-9): 1 to 10 µM
- IC50 (MMP-13): 8 nM

Compound: CC(C)CO/N=C/c1c[nH]c2ccc(C#Cc3ccc(N4CCN(S(=O)(=O)N[C@H](C)C(=O)O)CC4)cc3)cc12 [Compound V-43, (R)-2-(4-{4-[3-((E)-isobutoxyiminomethyl)-1H-indol-5-ylethynyl]-phenyl}-piperazine-1-sulfonylamino)-proponic acid]
- IC50 (MMP-2): > 10 µM
- IC50 (MMP-9): > 10 µM
- IC50 (MMP-13): 19 nM

Compound: C[C@@H](NS(=O)(=O)N1CCN(c2ccc(C#Cc3ccc4c(c3)c(/C=C/Cl)cn4C)cc2)CC1)C(=O)O [Compound V-44, (R)-2-(4-{4-[3-((E)-2-chrolovinyl)-1-methyl1H-indol-5-ylethynyl]-phenyl}-piperazine-1-sulfonylamino)-proponic acid]
- IC50 (MMP-2): 1 to 10 µM
- IC50 (MMP-9): > 10 µM
- IC50 (MMP-13): 16 nM

Compound: C[C@@H](NS(=O)(=O)N1CCN(c2ccc(C#Cc3ccc4c(c3)C(=O)N(Cc3ccccc3)CCN4)cc2)CC1)C(=O)O [Compound V-51, (R)-2-{4-[4-(4-benzyl-5-oxo-2,3,4,5-tetrahydro-1H-benzo[e][1,4]diazepin-7-ylethynyl)-phenyl]-piperazine-1-sulfonylamino}-proponic acid]
- IC50 (MMP-2): 1 to 10 µM
- IC50 (MMP-9): > 10 µM
- IC50 (MMP-13): 8 nM

Compound: C[C@@H](NS(=O)(=O)N1CCN(c2ccc(C#Cc3ccc4c(c3)C(=O)N(Cc3ccccc3)CCN4C)cc2)CC1)C(=O)O [Compound V-52, (R)-2-{4-[4-(4-benzyl1-methyl-5-oxo-2,3,4,5-tetrahydro1H-benzo[e][1,4]diazepin-7-ylethynyl)-phenyl]-piperazine-1-sulfonylamino}-proponic acid]
- IC50 (MMP-2): 1 to 10 µM
- IC50 (MMP-9): 1 to 10 µM
- IC50 (MMP-13): 12 nM

Compound: CC(=O)c1csc2ccc(C#Cc3ccc(N4CCN(S(=O)(=O)N[C@H](C)C(=O)O)CC4)cc3)cc12 [Compound V-56, (R)-2-{4-[4-(3-acetylbenzo[b]thiophen-5-ylethynyl)-phenyl]-piperazine-1-sulfonylamino}-proponic acid]
- IC50 (MMP-2): 1 to 10 µM
- IC50 (MMP-9): > 10 µM
- IC50 (MMP-13): 16 nM

Compound: CCc1cnc(-c2cc(C#Cc3ccc(N4CCN(S(=O)(=O)N[C@@H](C(=O)O)C(C)C)CC4)cc3)ccc2OCCOC)o1 [Compound V-57, (R)-2-(4-{4-[3-(5-ethyloxazol-2-yl)-4-(2-methoxyethoxy)-phenylethynyl]-phenyl}-piperazine-1-sulfonylamino)-3-methylbutanoic acid]
- IC50 (MMP-2): 1 to 10 µM
- IC50 (MMP-9): > 10 µM
- IC50 (MMP-13): 13 nM
